Where two headings read alike, the source gives them in different places.
Experiments:
SKBr3 = assay: Cytotoxicity against SKBr3 breast cancer cells; assay type: cell-based; conditions: Homo sapiens, SK-BR-3, first value of cell
Procedure: (§1) Compounds of the invention were assayed for cytotoxicity in HCC1954 and SK-BR-3 tumor cells.

[1] = tested on: BT-474 (breast tumor cell line) xenograft; assay: BT-474 breast tumor xenograft in CB17/SCID mice; assay type: in vivo; parameters: Regression in tumor volume / Inhibition of tumor growth: dose or concentration left out as unconfirmed
Procedure: FIG. 1 depicts the tumor volume and animal weight change following treatment with compound 13a or control vehicle. Each point represents the mean of measurements from 5 (for vehicle) or 6 (for 13a) animals. The experiment was carried out for 28 days and tumor volumes were determined weekly by caliper measurement. Student's t-test was used to determine the statistical analysis of the difference between tumor volumes of vehicle-treated and drug-treated animals. Individual body weights were also determined weekly. Statistical significance was achieved (comparing tumor volumes in vehicle-treated and drug-treated animals) at day 21 for the q4d schedule (p=0.0497). In comparison, on the q2d schedule increasing statistical significance was achieved on days 14, 21, and 28, when comparing tumor volume of vehicle-treated and drug-treated animals (p=0.012, p=0.007, and p=0.0002, respectively).
Top panels represent hematoxylin & eosin (H & E) stained paraffin sections. Nuclei appear blue in color. The dark blue condensed nuclei in drug-treated tumors (right) are consistent with apoptotic cells. […] Bottom panels represent TUNEL (terminal deoxynucleotidyl transferase-mediated dUTP-biotin nick end labeling)-stained paraffin sections. The high preponderance of reddish-pink nuclei (positive for TUNEL staining) in the drug-treated tumors reflects DNA fragmentation which is characteristic of apoptosis. Blue arrowheads point to characteristic TUNEL positive nuclei.
Two schedules of 100 mg every other day (q2d) or every four days (q4d) during 28 days were investigated.
Based on the in vitro data shown in Table 3, compound 13a was further evaluated in vivo.

Her-2 (HSP90 client) = Her-2 (HSP90 client) degradation (client depletion); assay type: cell-based
Procedure: A number of the compounds of the invention were tested for affinity to HSP90α (see Kim et al., J. Biomol. Screen., 2004, 9, 375), Her-2 (HSP90 client) degradation (see Xu et al., J. Biol. Chem., 2001, 276, 3702), and cytotoxicity against SKBr3 and HCC1954, two breast cancer cell lines which over express Her-2.

HCC1954 = assay: Cytotoxicity against HCC1954 breast cancer cells; assay type: cell-based; conditions: Homo sapiens, second value of cell
Procedure: as §1

ErbB2 in SK-BR3 = assay: Degradation of HSP90 client ErbB2 in SK-BR3, Western blotting after 18 hrs treatment; assay type: cell-based; conditions: SK-BR3, 18 hrs treatment, E-oxime isomer
HSP90α = HSP90α (Homo sapiens, UniProt P07900); assay: Affinity to HSP90α; assay type: binding
HSP90 = conditions: cited from earlier work
[2] = Her-2 degradation; read-out: Client Depletion
[3] = read-out: Client Depletion; Her-2 degradation

Compound | IC50 (Her-2 (HSP90 client); [2]) [µM] | IC50 (HSP90α; read-out: HSP90 affinity) [µM] | IC50 (Her-2 (HSP90 client); [3]) [µM] | IC50 (HSP90α; HSP90 affinity) [µM] | IC50 (SKBr3) [µM] | IC50 (HCC1954) [µM] | other results
O=C1OCC/C=C/CC/C=C/C(=N/OCC(=O)N2CCCCC2)Cc2c(Cl)c(O)cc(O)c21 [13a] | 0.035 | 0.021 | – | – | 0.125 | 0.32 | Weight loss ([1]; q2d and q4d schedules, 28 days): Neither the q2d nor the q4d schedules resulted in significant weight loss; Inhibition of tumor growth ([1]; q2d or q4d during 28 days): dose-dependent inhibition of the tumor growth; Regression in tumor volume ([1]; q2d schedule, 28 days): 18%; Tumor histology: cellularity ([1]; q2d schedule, 28 days): dramatic loss of cellularity; Tumor nuclear TUNEL staining (apoptosis) ([1]; q2d schedule, 28 days): high degree of nuclear TUNEL staining; Reduction of ErbB2 concentration compared with radicicol and 17-AAG (ErbB2 in SK-BR3): significantly more effective than both radicicol and 17-AAG
C[C@@H]1C/C=C/CC/C=C/C(=N/OCC(=O)N2CCCCC2)Cc2cc(O)cc(O)c2C(=O)O1 [13c] | – | – | 0.026 | 0.018 | 0.45 | 0.63 | Reduction of ErbB2 concentration compared with radicicol and 17-AAG (ErbB2 in SK-BR3): significantly more effective than both radicicol and 17-AAG
O=C1OCC/C=C/CC/C=C/C(=NOCC(=O)N2CCOCC2)Cc2c(Cl)c(O)cc(O)c21 [13d] | > 10 | 0.22 | – | – | > 10 | > 10 | –
O=C1OCC/C=C/CC/C=C/C(=NOCC(=O)N2CCNCC2)Cc2c(Cl)c(O)cc(O)c21 [13e] | > 10 | > 10 | – | – | > 10 | > 10 | –
COC1CC/C=C/CCOC(=O)c2c(O)cc(O)c(Cl)c2C/C(=N\OCC(=O)N2CCCCC2)C1 (centres unmarked) [13f] | 2.4 | 0.068 | – | – | 1.3 | 2.8 | –
O=C(CON=C1/C=C/CC/C=C/CCOC(=O)c2c(O)cc(O)c(Cl)c2C1)NCCO [13h] | 7.7 | 0.39 | – | – | 7.5 | > 10 | –
CNC(=O)CON=C1/C=C/CC/C=C/CCOC(=O)c2c(O)cc(O)c(Cl)c2C1 [13i] | – | 1.2 | – | – | > 10 | > 10 | –
O=C(CON=C1/C=C/CC/C=C/CCOC(=O)c2c(O)cc(O)c(Cl)c2C1)NC1CCCCC1 [13k] | 0.25 | 0.09 | – | – | 0.55 | 0.45 | –
COC(=O)CON=C1/C=C/CC/C=C/CCOC(=O)c2c(O)cc(O)c(Cl)c2C1 [13l] | 6.5 | 0.19 | – | – | > 10 | > 10 | –
C=CCC/C=C/C(Cc1c(Cl)c(O)cc(O)c1C(=O)OCCC=C)=NOCC(=O)N1CCCCC1 [13m] | > 10 | > 10 | – | – | > 10 | > 10 | –
O=C1OCC/C=C/CC/C=C/C(=N\OCC(=O)N2CCCCC2)Cc2c(Cl)c(O)cc(O)c21 [14a] | > 10 | 1.8 | – | – | > 10 | 5.2 | –
CC(C)N(C(=O)CON=C1/C=C/CC/C=C/CCOC(=O)c2c(O)cc(O)cc2C1)C(C)C [compound 379] | – | – | 0.627 | 0.162 | – | – | –
COC(=O)CON=C1/C=C/CC/C=C/CCOC(=O)c2c(O)cc(O)cc2C1 [compound 385] | – | – | 8.16 | 0.373 | – | – | –
CC1C=CC(C)N1C(=O)CON=C1/C=C/CC/C=C/CCOC(=O)c2c(O)cc(O)cc2C1 (centres unmarked) [compound 387] | – | – | 0.568 | 0.118 | – | – | –
CCCN(CCC)C(=O)CON=C1/C=C/CC/C=C/CCOC(=O)c2c(O)cc(O)cc2C1 [compound 389] | – | – | 0.454 | 0.155 | – | – | –
CC(C)CN(CC(C)C)C(=O)CON=C1/C=C/CC/C=C/CCOC(=O)c2c(O)cc(O)cc2C1 [compound 390] | – | – | 0.549 | 0.094 | – | – | –
CC(C)(C)OC(=O)N1CCN(C(=O)CON=C2/C=C/CC/C=C/CCOC(=O)c3c(O)cc(O)cc3C2)CC1 [compound 392] | 2.87 | 0.327 | – | – | – | – | –
CCCC1C/C=C/CC/C=C/C(=NOCC(=O)N2CCCCC2)Cc2c(Cl)c(O)cc(O)c2C(=O)O1 (centres unmarked) [compound 394] | – | – | 1.58 | 0.096 | – | – | –
O=C1NCC/C=C/CC/C=C/C(=NOCC(=O)N2CCCCC2)Cc2c(Cl)c(O)cc(O)c21 [compound 395] | – | – | 0.754 | 0.097 | – | – | –
O=C1OCCC/C=C/CC/C=C/C(=NOCC(=O)N2CCCCC2)Cc2c(Cl)c(O)cc(O)c21 [compound 396] | 3.65 | 0.182 | – | – | – | – | –
C=C/C1=C\CC/C=C/C(=NOCC(=O)N2CCCCC2)Cc2c(Cl)c(O)cc(O)c2C(=O)OCC1 [compound 397] | – | – | 0.98 | 0.432 | – | – | –
C[C@@H]1CC2O[C@@H]2CC/C=C/C(=O)Cc2c(Cl)c(O)cc(O)c2C(=O)O1 (some centres unmarked) [pochonin A] | – | – | – | – | – | – | Inhibitor of HSP90 (HSP90): 90 nM
C[C@@H]1C/C=C/CC/C=C/C(=O)Cc2c(Cl)c(O)cc(O)c2C(=O)O1 [pochonin D, Pochonin D, reference compound] | 3.5 | 0.36 | – | – | – | – | –

Second part, led by results:

IC50 (Her-2 (HSP90 client); [2]) [µM] | IC50 (HSP90α; read-out: HSP90 affinity) [µM] | IC50 (Her-2 (HSP90 client); [3]) [µM] | IC50 (HSP90α; HSP90 affinity) [µM] | Compound | IC50 (SKBr3) [µM] | IC50 (HCC1954) [µM] | other results
– | – | 0.05 | 0.015 | O=C1OCC/C=C/CC/C=C/C(=N/OCC(=O)N2CCCCC2)Cc2cc(O)cc(O)c21 [13b] | 0.12 | 0.22 | Reduction of ErbB2 concentration compared with radicicol and 17-AAG (ErbB2 in SK-BR3): significantly more effective than both radicicol and 17-AAG
5.5 | 0.11 | – | – | O=C(CON=C1/C=C/CC/C=C/CCOC(=O)c2c(O)cc(O)c(Cl)c2C1)NCc1ccccc1 [13j] | 3.5 | 8.5 | –
– | – | 5 | 0.11 | O=C1OCC/C=C/CC/C=C/C(=N\OCC(=O)N2CCCCC2)Cc2cc(O)cc(O)c21 [14b] | > 10 | > 10 | –
– | – | 0.201 | 0.07 | CC1CCN(C(=O)CON=C2/C=C/CC/C=C/CCOC(=O)c3c(O)cc(O)cc3C2)CC1 [compound 375] | – | – | –
– | – | > 10 | 2.24 | O=C1OCC/C=C/CC/C=C/C(=NOCC(=O)N2CCC(c3ccccc3)CC2)Cc2cc(O)cc(O)c21 [compound 376] | – | – | –
– | – | > 10 | 5.76 | O=C1OCC/C=C/CC/C=C/C(=NOCC(=O)N2CCC(Cc3ccccc3)CC2)Cc2cc(O)cc(O)c21 [compound 377] | – | – | –
– | – | 0.929 | 0.057 | O=C(CON=C1/C=C/CC/C=C/CCOC(=O)c2c(O)cc(O)cc2C1)NCc1ccccc1 [compound 378] | – | – | –
– | – | 0.588 | 0.124 | O=C1OCC/C=C/CC/C=C/C(=NOCC(=O)N2CCOCC2)Cc2cc(O)cc(O)c21 [compound 380] | – | – | –
– | – | > 10 | 2.99 | O=C1OCC/C=C/CC/C=C/C(=NOCC(=O)N(Cc2ccccc2)Cc2ccccc2)Cc2cc(O)cc(O)c21 [compound 381] | – | – | –
– | – | 0.122 | 0.022 | O=C1OCC/C=C/CC/C=C/C(=NOCC(=O)N2CC=CCC2)Cc2cc(O)cc(O)c21 [compound 382] | – | – | –
– | – | 0.708 | 0.116 | O=C(CON=C1/C=C/CC/C=C/CCOC(=O)c2c(O)cc(O)cc2C1)NC1CCCCC1 [compound 383] | – | – | –
– | – | 0.512 | 0.07 | O=C1OCC/C=C/CC/C=C/C(=NOCC(=O)N2CCSCC2)Cc2cc(O)cc(O)c21 [compound 384] | – | – | –
– | – | 0.669 | 0.128 | O=C1OCC/C=C/CC/C=C/C(=NOCC(=O)N2CC=CC2)Cc2cc(O)cc(O)c21 [compound 386] | – | – | –
– | – | 0.509 | 0.219 | O=C1OCC/C=C/CC/C=C/C(=NOCC(=O)N2CCCC2)Cc2cc(O)cc(O)c21 [compound 388] | – | – | –
– | – | 2.83 | 0.337 | CC1CN(C(=O)CON=C2/C=C/CC/C=C/CCOC(=O)c3c(O)cc(O)cc3C2)CC(C)O1 (centres unmarked) [compound 391] | – | – | –
